The source of these data is ChEMBL document CHEMBL5226325, “Optimization of a Screening Hit toward M2912, an Oral Tankyrase Inhibitor with Antitumor Activity in Colorectal Cancer Models” (J Med Chem, 2021).

SMILES strings stand for the structures.

Assay [1] is described as follows: Modulation of Wnt/beta-catenin signaling pathway in human DLD-1 cells assessed as induction of AXIN2 accumulation incubated for 24 hrs by ELISA. The class given is cell-based. The conditions noted are these: DLD-1, 24 h. In general terms: In an ELISA, binding on a coated surface is turned into a signal by an enzyme label.
Assay [2] concerns the target T1, Poly [ADP-ribose] polymerase tankyrase-1 (Homo sapiens, UniProt O95271).
T1 sequence (O95271 whole entry): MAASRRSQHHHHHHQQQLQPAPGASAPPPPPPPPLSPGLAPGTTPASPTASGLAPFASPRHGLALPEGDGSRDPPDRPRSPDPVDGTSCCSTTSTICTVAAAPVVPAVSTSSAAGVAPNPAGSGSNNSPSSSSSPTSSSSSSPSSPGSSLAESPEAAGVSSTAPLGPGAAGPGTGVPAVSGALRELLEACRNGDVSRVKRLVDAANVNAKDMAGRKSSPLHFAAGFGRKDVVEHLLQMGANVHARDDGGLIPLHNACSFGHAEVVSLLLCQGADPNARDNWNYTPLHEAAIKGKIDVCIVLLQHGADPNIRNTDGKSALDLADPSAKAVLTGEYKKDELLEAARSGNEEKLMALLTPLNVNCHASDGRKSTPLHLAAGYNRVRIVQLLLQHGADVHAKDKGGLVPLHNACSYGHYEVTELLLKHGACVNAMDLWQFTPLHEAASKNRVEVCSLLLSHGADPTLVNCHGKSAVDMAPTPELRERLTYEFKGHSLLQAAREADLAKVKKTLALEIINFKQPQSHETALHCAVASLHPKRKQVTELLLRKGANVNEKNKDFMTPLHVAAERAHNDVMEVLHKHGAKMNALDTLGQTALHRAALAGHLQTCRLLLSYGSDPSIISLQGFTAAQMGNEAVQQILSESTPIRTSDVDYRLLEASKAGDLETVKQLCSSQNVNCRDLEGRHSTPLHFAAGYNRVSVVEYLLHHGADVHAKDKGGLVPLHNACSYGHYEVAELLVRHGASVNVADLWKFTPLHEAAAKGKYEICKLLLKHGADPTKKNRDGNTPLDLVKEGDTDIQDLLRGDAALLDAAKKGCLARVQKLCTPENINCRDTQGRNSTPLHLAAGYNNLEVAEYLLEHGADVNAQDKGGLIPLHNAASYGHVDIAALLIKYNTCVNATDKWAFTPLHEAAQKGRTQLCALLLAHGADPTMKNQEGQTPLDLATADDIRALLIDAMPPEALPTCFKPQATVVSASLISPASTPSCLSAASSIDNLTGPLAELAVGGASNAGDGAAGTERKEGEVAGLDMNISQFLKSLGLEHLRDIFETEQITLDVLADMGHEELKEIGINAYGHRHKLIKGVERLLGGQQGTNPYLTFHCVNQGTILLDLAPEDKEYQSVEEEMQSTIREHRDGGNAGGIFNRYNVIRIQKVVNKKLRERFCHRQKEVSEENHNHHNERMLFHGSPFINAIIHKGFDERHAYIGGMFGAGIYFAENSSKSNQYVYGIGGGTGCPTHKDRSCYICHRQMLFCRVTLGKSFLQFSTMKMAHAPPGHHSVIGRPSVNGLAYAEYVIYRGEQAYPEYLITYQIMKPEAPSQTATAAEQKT
Put plainly: Inhibition of TNKS1 (unknown origin) using biotinylated NAD as substrate assessed as inhibition of autoPARsylation activity incubated for 1 hr by ELISA.

The target in assay [3] is T2, Poly [ADP-ribose] polymerase tankyrase-2 (Homo sapiens, UniProt Q9H2K2).
T2 sequence (Q9H2K2 whole entry): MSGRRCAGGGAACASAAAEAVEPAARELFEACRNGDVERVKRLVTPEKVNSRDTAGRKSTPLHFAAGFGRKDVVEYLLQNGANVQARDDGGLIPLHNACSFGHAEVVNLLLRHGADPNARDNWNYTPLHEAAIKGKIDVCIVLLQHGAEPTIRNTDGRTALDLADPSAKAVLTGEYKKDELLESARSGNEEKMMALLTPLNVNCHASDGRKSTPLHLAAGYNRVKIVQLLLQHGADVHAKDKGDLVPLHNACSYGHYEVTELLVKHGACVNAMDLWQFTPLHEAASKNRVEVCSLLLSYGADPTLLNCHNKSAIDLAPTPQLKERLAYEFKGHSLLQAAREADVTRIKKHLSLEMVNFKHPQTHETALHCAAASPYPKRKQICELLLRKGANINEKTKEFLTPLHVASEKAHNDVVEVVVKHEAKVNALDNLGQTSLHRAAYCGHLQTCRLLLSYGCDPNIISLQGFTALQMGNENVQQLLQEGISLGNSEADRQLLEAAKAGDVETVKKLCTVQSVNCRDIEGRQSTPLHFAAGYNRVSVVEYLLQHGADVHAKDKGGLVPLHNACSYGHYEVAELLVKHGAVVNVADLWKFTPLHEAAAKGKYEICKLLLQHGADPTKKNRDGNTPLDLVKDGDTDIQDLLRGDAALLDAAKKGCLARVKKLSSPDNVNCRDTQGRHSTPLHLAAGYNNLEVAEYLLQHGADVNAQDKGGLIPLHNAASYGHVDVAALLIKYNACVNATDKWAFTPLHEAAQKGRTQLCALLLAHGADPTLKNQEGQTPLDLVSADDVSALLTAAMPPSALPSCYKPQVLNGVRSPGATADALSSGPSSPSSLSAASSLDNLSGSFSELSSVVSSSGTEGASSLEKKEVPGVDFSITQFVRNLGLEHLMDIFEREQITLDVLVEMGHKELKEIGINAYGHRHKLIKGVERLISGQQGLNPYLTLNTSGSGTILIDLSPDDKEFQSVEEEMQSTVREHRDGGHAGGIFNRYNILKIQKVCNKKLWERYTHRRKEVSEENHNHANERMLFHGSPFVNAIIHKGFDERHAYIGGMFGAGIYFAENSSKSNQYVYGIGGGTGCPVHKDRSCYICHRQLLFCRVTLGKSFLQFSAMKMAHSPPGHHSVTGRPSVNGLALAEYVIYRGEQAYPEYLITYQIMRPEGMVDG
Put plainly: Inhibition of TNKS2 (unknown origin) using biotinylated NAD as substrate assessed as inhibition of autoPARsylation activity incubated for 1 hr by ELISA.

The target of assay [4] is Poly [ADP-ribose] polymerase 1 (Homo sapiens, UniProt P09874). As to the kind of experiment: Inhibition of PARP-1 (unknown origin) using biotinylated NAD and NAD as substrate assessed as inhibition of auto-PARsylation incubated for 150 mins by TR-FRET assay. On the technique in general: TR-FRET usually uses a lanthanide donor and a delayed reading to cut background.
Assay [5] has as its target T1, Poly [ADP-ribose] polymerase tankyrase-1. As to the kind of experiment: Binding affinity to recombinant human TNKS1 (1091 to 1327 residues) assessed as dissociation constant by ITC method.
The target is the same in assay [6]. As to the kind of experiment: Inhibition of TNKS1 (unknown origin) using biotinylated NAD as substrate assessed as inhibition of autoPARsylation activity incubated for 90 mins by TR-FRET analysis.

Sequence of Poly [ADP-ribose] polymerase 1 (P09874 whole entry, the tested form may be a part): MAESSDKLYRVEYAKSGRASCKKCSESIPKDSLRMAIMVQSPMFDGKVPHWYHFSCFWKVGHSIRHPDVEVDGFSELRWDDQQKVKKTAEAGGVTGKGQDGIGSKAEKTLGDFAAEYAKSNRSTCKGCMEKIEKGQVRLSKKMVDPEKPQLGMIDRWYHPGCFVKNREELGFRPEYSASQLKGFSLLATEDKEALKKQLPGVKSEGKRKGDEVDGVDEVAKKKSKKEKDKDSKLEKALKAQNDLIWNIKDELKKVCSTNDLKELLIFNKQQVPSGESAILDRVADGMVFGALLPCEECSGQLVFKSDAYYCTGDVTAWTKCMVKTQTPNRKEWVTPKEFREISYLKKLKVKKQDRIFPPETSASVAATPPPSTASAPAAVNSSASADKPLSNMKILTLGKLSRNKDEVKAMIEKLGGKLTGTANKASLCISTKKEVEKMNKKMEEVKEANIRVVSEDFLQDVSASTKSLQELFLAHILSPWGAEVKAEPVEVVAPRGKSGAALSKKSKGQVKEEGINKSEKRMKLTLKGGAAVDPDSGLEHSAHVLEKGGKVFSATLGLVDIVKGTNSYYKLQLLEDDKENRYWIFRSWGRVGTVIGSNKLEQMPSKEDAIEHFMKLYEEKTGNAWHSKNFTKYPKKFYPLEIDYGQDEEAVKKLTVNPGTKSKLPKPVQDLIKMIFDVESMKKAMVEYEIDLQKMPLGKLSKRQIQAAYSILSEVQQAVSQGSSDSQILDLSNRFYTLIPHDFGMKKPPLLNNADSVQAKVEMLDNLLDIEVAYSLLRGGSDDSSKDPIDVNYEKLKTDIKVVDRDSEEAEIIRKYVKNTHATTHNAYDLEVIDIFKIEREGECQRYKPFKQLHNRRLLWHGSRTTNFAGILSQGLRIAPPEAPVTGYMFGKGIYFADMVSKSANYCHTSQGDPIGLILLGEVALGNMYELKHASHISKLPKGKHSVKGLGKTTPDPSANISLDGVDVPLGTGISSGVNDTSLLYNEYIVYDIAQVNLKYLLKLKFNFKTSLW

As usually defined, the EC50 is the concentration that produces a half-maximal response. What is called IC50 is the concentration needed to halve the response being measured. With `CC(C)(O)c1ccc(-c2cn3c(CO)ccc3c(=O)[nH]2)cc1`, the EC50 in assay [1] came out at 580 nM. The IC50 in assay [2] turned out to be 9.8 nM; in assay [3], 8.2 nM; in assay [4], 4200 nM.

One may read the Kd as the equilibrium constant for the complex coming apart. Turning to `CC(C)(O)c1ccc(-c2cn3c(F)ccc3c(=O)[nH]2)cc1`, the EC50 in assay [1] was 113 nM. Moreover, in assay [5], the Kd is 6 nM. In addition, the IC50 amounted to 3.4 nM in assay [2], 6.1 nM in assay [3] and 2000 nM in assay [4].

For the molecule `CC(C)(O)c1ccc(-c2cn3c(F)c(F)cc3c(=O)[nH]2)cc1`, the EC50 in assay [1] was determined as 159 nM. Moreover, the IC50 in assay [2] worked out at 1.2 nM; in assay [3], 3.5 nM; in assay [4], 1300 nM.

On to `CC(C)(O)c1ccc(-c2cn3cc(Cl)cc3c(=O)[nH]2)cc1`, for which the EC50 in assay [1] turned out to be 118 nM. Also, the IC50 turned out to be 2.5 nM in assay [2], 9.4 nM in assay [3] and 630 nM in assay [4].

Regarding `Cc1csc2c(=O)[nH]c(-c3ccc(C(C)(C)O)cc3)nc12`, the EC50 in assay [1] came out at 96 nM. The figures for the IC50 in assay [2], in assay [3] and in assay [4] were 2 nM, 1.5 nM and 440 nM, respectively.

Consider `Cc1ccc2c(=O)[nH]c(-c3ccc([C@](C)(O)CO)cc3)cn12`, for which the concentration for a half-maximal effect (EC50) in assay [1] worked out at 82 nM. For the same molecule, the IC50 in assay [2] turned out to be 2.6 nM; in assay [3], 2 nM; in assay [4], 604 nM.

Regarding `Cc1ccc2c(=O)[nH]c(-c3ccc(C4(O)CC4)cc3)cn12`, in assay [1], the concentration for a half-maximal effect (EC50) is 49 nM. The figures for the half-maximal inhibitory concentration (IC50) in assay [2], in assay [3] and in assay [4] were 1 nM, 1 nM and 330 nM, respectively.

Regarding `Cc1ccc2c(=O)[nH]c(-c3ccc(C(C)(C)O)cc3)nn12`, in assay [1], the EC50 was found to be 28 nM. Moreover, the IC50 in assay [2] was determined as 0.8 nM; in assay [3], 0.9 nM; in assay [4], 950 nM.

Regarding `CC(C)(C)c1ccc(-c2cn3ccnc3c(=O)[nH]2)cc1`, the EC50 in assay [1] came out at 1430 nM. Further, the IC50 in assay [2] amounted to 21 nM.

On to `Cc1cc2c(=O)[nH]c(-c3ccc(C(C)(C)O)cc3)cn2n1`, for which, in assay [1], the EC50 amounted to 510 nM. Also, the figures for the IC50 in assay [2], in assay [3] and in assay [4] were 13 nM, 36 nM and 3700 nM, respectively.

For the molecule `Cc1ccc(-c2cn3ccnc3c(=O)[nH]2)cc1`, the IC50 in assay [6] was 1500 nM.

With `Cc1ncc2c(=O)[nH]c(-c3ccc(C(C)(C)C)cc3)cn12`, the EC50 in assay [1] was 210 nM. Also, the IC50 in assay [2] is 2.9 nM; in assay [3] it was 3.8 nM; in assay [4] it was 28000 nM.

With `Cc1cc2c(=O)[nH]c(-c3ccc(C(C)(C)O)cc3)cn2c1`, in assay [1], the EC50 was 230 nM. Moreover, the values for the IC50 in assay [2], in assay [3] and in assay [4] were 2.3 nM, 7.9 nM and 1900 nM, respectively.

Turning to `Cc1ccc2c(=O)[nH]c(-c3ccc([C@@](C)(O)CCO)cc3)cn12`, the EC50 in assay [1] is 16 nM. Besides, the results for the IC50 in assay [2], in assay [3] and in assay [4] were 2.1 nM, 1.6 nM and 340 nM, respectively.

Take `Cc1ncc2c(=O)[nH]c(-c3ccc(C(C)(C)O)cc3)cn12`: the EC50 in assay [1] stood at 749 nM. Besides, the IC50 came to 12 nM in assay [2], 14 nM in assay [3] and 23000 nM in assay [4].

With `Cc1ccc2c(=O)[nH]c(-c3ccc(C(C)(C)OCCO)cc3)cn12`, the EC50 in assay [1] was determined as 20 nM. Besides, the IC50 in assay [2] worked out at 2.3 nM; in assay [3], 1.5 nM; in assay [4], 693 nM.

On to `Cc1ccc2c(=O)[nH]c(-c3ccc(C4(O)COC4)cc3)cn12`, for which, in assay [1], the EC50 amounted to 28 nM. Further, the IC50 in assay [2] was 2.5 nM; in assay [3] it was 1.8 nM; in assay [4], 350 nM.

Take `Cc1ccc2c(=O)[nH]c(-c3ccc([C@@](C)(O)CO)cc3)cn12`: in assay [1], the EC50 was found to be 93 nM. The IC50 in assay [2] is 1.9 nM; in assay [3], 1.7 nM; in assay [4], 748 nM.

Turning to `Cc1ccc2c(=O)[nH]c(-c3ccc([C@](C)(O)CCO)cc3)cn12`, the EC50 in assay [1] worked out at 18 nM. In addition, the figures for the IC50 in assay [2], in assay [3] and in assay [4] were 0.8 nM, 1 nM and 770 nM, respectively.

With `CC(C)(O)c1ccc(-c2cn3cccc3c(=O)[nH]2)cc1`, the EC50 in assay [1] was 120 nM. The Kd in assay [5] is 6 nM. Besides, the figures for the IC50 in assay [2], in assay [3] and in assay [4] were 2.7 nM, 5.5 nM and 920 nM, respectively.

In the case of `CC(C)(O)c1ccc(-c2cn3cc(F)cc3c(=O)[nH]2)cc1`, the EC50 in assay [1] is 147 nM. For the same molecule, the IC50 stood at 1.9 nM in assay [2], 2.9 nM in assay [3] and 450 nM in assay [4].

Consider `CC(C)(C)c1ccc(-c2cn3cncc3c(=O)[nH]2)cc1`, for which the EC50 in assay [1] stood at 635 nM. Besides, the values for the IC50 in assay [2] and in assay [3] were 27 nM and 35 nM, respectively.

Regarding `Cc1cc2c(=O)[nH]c(-c3ccc(C(C)(C)O)cc3)nn2n1`, in assay [1], the EC50 was 12000 nM. Also, the IC50 in assay [2] was found to be 570 nM; in assay [3], 2600 nM.
